The text below walks through data of ChEMBL document CHEMBL1944592 (Bioorg Med Chem Lett, 2012).

The structures appear in SMILES notation.

Common to all, as to type: functional, cell-based
In assay [1] the target is T1, Peroxisome proliferator-activated receptor gamma (Homo sapiens) (UniProt P37231).
T1 sequence (whole entry): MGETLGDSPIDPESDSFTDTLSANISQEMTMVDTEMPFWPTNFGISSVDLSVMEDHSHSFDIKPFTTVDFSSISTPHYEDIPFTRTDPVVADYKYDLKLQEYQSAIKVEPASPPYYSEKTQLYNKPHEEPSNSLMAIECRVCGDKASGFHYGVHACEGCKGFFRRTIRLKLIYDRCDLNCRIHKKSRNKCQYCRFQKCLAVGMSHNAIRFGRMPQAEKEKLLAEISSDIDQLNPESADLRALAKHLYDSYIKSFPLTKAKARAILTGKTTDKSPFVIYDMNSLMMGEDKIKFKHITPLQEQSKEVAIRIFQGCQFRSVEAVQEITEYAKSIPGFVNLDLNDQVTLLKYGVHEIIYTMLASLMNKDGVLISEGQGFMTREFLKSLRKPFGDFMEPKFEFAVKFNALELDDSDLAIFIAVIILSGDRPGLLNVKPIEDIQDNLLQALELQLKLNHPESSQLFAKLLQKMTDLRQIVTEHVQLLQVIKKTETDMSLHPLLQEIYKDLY
The assay can be described thus: Agonist activity at human PPARgamma expressed in MG-63 cells at 2 times EC50 concentration by reporter gene-based transactivation assay relative to PPARgamma full agonist. (Reporter assays use an easily measured gene product as a stand-in for the process of interest.)

For assay [2], the target named is T2, Peroxisome proliferator-activated receptor gamma (Homo sapiens, UniProt P37231).
T2 sequence (P37231 whole entry): T1 sequence (whole entry)
The assay can be described thus: Agonist activity at human PPARgamma expressed in MG-63 cells by reporter gene-based transactivation assay.

The target in assay [3] is T2, Peroxisome proliferator-activated receptor gamma. The assay can be described thus: Partial agonist activity at human PPARgamma expressed in MG-63 cells by reporter gene-based transactivation assay.
The target in assay [4] is T1, Peroxisome proliferator-activated receptor gamma (Homo sapiens). The assay can be described thus: Partial agonist activity at human PPARgamma expressed in MG-63 cells at 2 times EC50 concentration by reporter gene-based transactivation assay relative to PPARgamma full agonist.

`COC(=O)CCCc1cc(CNC(=O)c2c(OC)cc(O)c3c2OC2=CC(O)=C(C(C)=O)C(=O)[C@]23C)c2ccccc2c1`: the Emax in assay [1] was found to be 99%. In assay [2], the response was half-maximal at 42 nM (EC50).

As for `COc1cc(O)c2c(c1C(=O)NCc1cc(C)cc3ccccc13)OC1=CC(O)=C(C(C)=O)C(=O)[C@]12C`, the response in assay [3] was half-maximal at 210 nM (EC50). This molecule gave an Emax in assay [4] of 51%.

Consider `COC(=O)c1cc(CNC(=O)c2c(OC)cc(O)c3c2OC2=CC(O)=C(C(C)=O)C(=O)[C@]23C)c2ccccc2c1`, for which the EC50 – broadly, the midpoint of the concentration-response curve – in assay [3] worked out at 880 nM. Also, in assay [4], the Emax was found to be 55%.

Turning to `COc1cc(O)c2c(c1C(=O)NCc1cc(C(=O)O)cc3ccccc13)OC1=CC(O)=C(C(C)=O)C(=O)[C@]12C`, in assay [3], the half-maximal effective concentration (EC50) is greater than 1000 nM.

Consider `COc1cc(O)c2c(c1C(=O)NCc1cc(OC(C)=O)cc3ccccc13)OC1=CC(O)=C(C(C)=O)C(=O)[C@]12C`, for which the EC50 in assay [3] turned out to be 680 nM. Further, the Emax in assay [4] was 50%.

Turning to `COC(=O)CCc1cc(CNC(=O)c2c(OC)cc(O)c3c2OC2=CC(O)=C(C(C)=O)C(=O)[C@]23C)c2ccccc2c1`, in assay [3], the 50% effective concentration (EC50) was 130 nM. For the same molecule, in assay [4], the Emax is 79%.

In the case of `CCOc1cc(CNC(=O)c2c(OC)cc(O)c3c2OC2=CC(O)=C(C(C)=O)C(=O)[C@]23C)c2ccccc2c1`, the EC50 in assay [3] was found to be 240 nM. In addition, in assay [4], the Emax was 22%.

In turn, `COc1cc(CNC(=O)c2c(OC)cc(O)c3c2OC2=CC(O)=C(C(C)=O)C(=O)[C@]23C)c2ccccc2c1` registered an EC50 in assay [3] of 94 nM. Moreover, the Emax in assay [4] amounted to 32%.

As to `COc1cc(O)c2c(c1C(=O)NCc1cc(CCC(=O)O)cc3ccccc13)OC1=CC(O)=C(C(C)=O)C(=O)[C@]12C`, in assay [1], the Emax was determined as 109%. Also, in assay [2], the 50% effective concentration (EC50) worked out at 320 nM.

`COc1cc(O)c2c(c1C(=O)NCc1cc(CCCC(=O)O)cc3ccccc13)OC1=CC(O)=C(C(C)=O)C(=O)[C@]12C` registered an Emax in assay [1] of 105%. Besides, a half-maximal response in assay [2] (EC50) required 67 nM.

Molecule `COCc1cc(CNC(=O)c2c(OC)cc(O)c3c2OC2=CC(O)=C(C(C)=O)C(=O)[C@]23C)c2ccccc2c1` returned an EC50 in assay [3] of 200 nM. The molecule further had an Emax in assay [4] of 44%.

The molecule `COc1cc(O)c2c(c1C(=O)NCc1cc(O)cc3ccccc13)OC1=CC(O)=C(C(C)=O)C(=O)[C@]12C` displayed an EC50 in assay [3] of 130 nM. The Emax in assay [4] was 29%.
